From paper PMC9781803, “Phenotypic and Target-Directed Screening Yields New Acaricidal Alternatives for the Control of Ticks” (Molecules, 2022)
Read-outs that look alike come from different tables or passages of the source. Marks after values point to notes of the source that are not given here.

Key:
[1] = tested on: fully engorged females of the Mozo susceptible strain of R. microplus; assay: Adult Immersion Test (AIT); type: in vivo; details: for % of Mortality AIT: compounds 1.5 mM, 15 min immersion, 14 days
Method: This essay was performed based on Drummond et al., 1973, as each group of 5 fully engorged females of the Mozo susceptible strain of R. microplus was immersed in 50 mL tubes containing 10 mL of compounds at different concentrations (0.5, 1, 1.5, 2, 3.5 mM) for 15 min in four replicates. Four negative control groups were used (DMSO 10%). After immersion, the fully engorged females were lightly dried with absorbent paper. They were then placed in 100 mm disposable Petri dishes with their respective identification, and immediately incubated at 27 °C in an atmosphere with relative humidity (RH) of 85-90% for 14 days. […] The tubes carrying the eggs were closed with hydrophilic cotton, and were returned to the incubator chamber under the same conditions until the eggs hatched. The reproductive efficacy, as well as % control of each compound on R. microplus, was calculated according to published reports. The results were verified in two independent experiments.

[2] = tested on: R. microplus (Mozo strain) larvae; assay: Larval Immersion Test (LIT); type: in vivo
Method: (§1) This assay was performed based on the method of Castro-Janer et al., 2011. Fully engorged females of R. microplus (Mozo strain) were incubated in Petri dishes at 27 °C and 85–90% relative humidity for 14 days. […] The tubes were incubated in the same conditions as described above. The larvae were ready for testing after 14 to 21 days from egg-hatching. For the test, the compounds were diluted in DMSO, and were later resuspended in distilled water, always using 15% DMSO of the final solution volume. The concentrations for the different compounds for the final immersion solution are 1 mg/mL for the extracts, and 1 mM for the compounds. […] For the immersion procedure, tubes containing the larvae were placed vertically, without the cotton plug, and the larvae were taken with a brush from the top of the tube, ensuring they were viable. A cluster with a diameter of 2 mm of larvae was collected with a brush, and was later immersed in each solution, as well as in both control solutions, for 10 min. After this time, the solutions were drained, and the larvae were placed in 8.5 cm × 7.5 cm Whatman No. 1 filter papers. The filters were folded in the middle of the 8.5 cm side, and closed with 3 bulldog clips, forming packets. These packets were incubated for 24 h, under the same conditions as described previously, and then the percent of mortality was determined, considering it as the % of the control.

[3] = molecular target: R. microplus triosephosphate isomerase (RmTIM) (Rhipicephalus microplus, UniProt A8B3A8); assay: biochemical; details: for IC50: RmTIM, read-out: IC50
Sequence of R. microplus triosephosphate isomerase (RmTIM) (A8B3A8 entry or part of it): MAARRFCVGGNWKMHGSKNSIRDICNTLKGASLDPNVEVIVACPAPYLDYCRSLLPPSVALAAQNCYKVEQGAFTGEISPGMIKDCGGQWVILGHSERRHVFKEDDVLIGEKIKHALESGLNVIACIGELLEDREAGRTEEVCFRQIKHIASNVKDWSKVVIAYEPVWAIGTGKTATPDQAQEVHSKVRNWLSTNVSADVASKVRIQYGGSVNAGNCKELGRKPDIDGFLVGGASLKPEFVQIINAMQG
Method: (§2) R. microplus triosephosphate isomerase (RmTIM) and Homo sapiens triosephosphate isomerase (HsTIM) were expressed in Escherichia coli, and purified as previously described in the literature. Protein concentration was determined by absorbance measurements at 280 nm for RmTIM (ε = 33440 M^−1cm^−1) and HsTIM (ε = 33460 M^−1cm^−1). Enzymatic activity was determined following the reaction of the conversion of glyceraldehyde-3-phosphate to dihydroxyacetone phosphate in a coupled enzyme assay using α-glycerol-phosphate dehydrogenase. The decrease in absorbance at 340 nm was recorded in a multiplate reader Varioskan™ Flash Multimode Reader (Thermo Scientific^TM, Waltham, MA, USA) at 25 °C. The reaction mixture ([…], pH 7.4) contained 100 mM triethanolamine, 10 mM EDTA, 0.2 mM NADH, 1 mM glyceraldehyde-3-phosphate, and 0.9 units of α-glycerol-phosphate dehydrogenase. The reaction was initiated by the addition of 5 ng/mL of the TIM of interest. For the inhibition studies (incubation mixture), TIM was incubated at a concentration of 5 mg/mL in a buffer of pH 7.4 containing 100 mM triethanolamine, 10 mM EDTA, and 10% DMSO at 25 °C for 1 h. The mixture also contained the compounds, dissolved in DMSO, at final concentrations of 10 and 100 μM. After 1 h, 10 μL of the incubation mixture was added to the reaction mixture, to a final volume of 100 μL in a 96-well plate. None of the molecules tested here affected the activity of α-glycerol-phosphate dehydrogenase (checked in situ on the reaction mixture inhibited, with the addition of fresh α-glycerol-phosphate dehydrogenase and running the measurement again). The IC50 value was taken as the concentration of drug needed to reduce the enzymatic activity by 50%, and was analyzed using OriginLab 8.5 Corporation, Northampton, MA, USA, sigmoidal regression (% of enzymatic activity vs. the logarithm of the compound concentration). The tests were performed in triplicate in two independent experiments.

[4] = molecular target: T1, Homo sapiens triosephosphate isomerase (HsTIM) (Homo sapiens, UniProt P60174); assay: Enzymatic activity of TIM, coupled enzyme assay; type: biochemical
T1 construct: made in house; host or cells: Escherichia coli
T1 sequence (P60174 whole entry): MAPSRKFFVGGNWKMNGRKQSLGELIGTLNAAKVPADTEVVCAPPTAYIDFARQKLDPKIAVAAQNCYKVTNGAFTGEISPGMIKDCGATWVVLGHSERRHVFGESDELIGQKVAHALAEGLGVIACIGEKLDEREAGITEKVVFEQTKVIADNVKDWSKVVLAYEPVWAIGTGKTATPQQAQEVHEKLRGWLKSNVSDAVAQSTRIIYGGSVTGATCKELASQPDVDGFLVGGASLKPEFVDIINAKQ
Method: as §2

[5] = tested on: J774.1 murine macrophages; assay: Cytotoxicity assay on murine macrophages (MTT); type: cell-based; details: for EC50: read-out: EC50 (µM) for Mammalian Cells; for IC50: J774.1, 48 h, read-out: IC50 (µM) Mammalian Cells
Method: J774.1 murine macrophages (ATCC, Rockville, MD, USA) were grown in a DMEM culture medium containing 4 mM L-glutamine, and supplemented with 10% FCS. The cells were seeded into a 96-well plate (5 × 10^4 cells in 200 µL culture medium) and incubated at 37 °C in a 5% CO2 atmosphere for 48 h, to allow cell adhesion before drug testing. Afterward, the cells were exposed for 48 h to the compounds (25–400 μM) or the vehicle (0.4% DMSO), and additional controls (cells in medium) were used in each test. Cell viability was then assessed by measuring the mitochondria-dependent reduction of MTT to formazan: for this, MTT in sterile PBS (0.2% glucose), pH 7.4, was added to the macrophages, to a final concentration of 0.1 mg/mL, and the cells were then incubated at 37 °C for 3 h. After removing the medium, the formazan crystals were dissolved in 180 μL of DMSO and 20 μL of MTT buffer (0.1 M glycine, 0.1 M NaCl, 0.5 mM EDTA, pH 10.5), and the absorbance was measured at 560 nm. The IC50 was defined as the drug concentration at which 50% of the cells were viable, relative to the control (no drug added), and was determined by analysis using OriginLab 8.5 Corporation, Northampton, MA, USA, sigmoidal regression (% of viable cells compared to the logarithm of the compound concentration). The tests were performed in triplicate in two independent experiments.

R. microplus = assay: Acaricidal activity on R. microplus (LIT and AIT, overall statement); type: in vivo; details: LIT 1 mM and AIT 1.5 mM
Method: as §1, with “After immersion, the fully engorged females were lightly dried with absorbent paper. […] The tubes carrying the eggs were closed with hydrophilic cotton, and were returned to the incubator chamber under the same conditions until the eggs hatched. The reproductive efficacy, as well as % control of each compound on R. microplus, was calculated according to published reports. The results were verified in two independent experiments. This” for “This”, “2011.” for “2011. Fully engorged females of R. microplus (Mozo strain) were incubated in Petri dishes at 27 °C and 85–90% relative humidity for 14 days.”, “volume.” for “volume. The concentrations for the different compounds for the final immersion solution are 1 mg/mL for the extracts, and 1 mM for the compounds.”

[6] = tested on: embryonic cell line BME26; assay: Phenotypic screening on BME26 cell cultures (MTT viability); type: cell-based, R. microplus; details: for inhibition at 100 µM: synthetic compounds at 100 μM, BME26, 24 h, read-out: % of Growth Inhibition; for IC50: BME26 cells, 24 h, MTT, read-out: IC50
Method: The embryonic cell line BME26 from R. microplus (Centro de Biotecnologia, Universidade Federal do Rio Grande do Sul, Porto Alegre, RS, Brazil) was grown as adherent monolayers in a complete medium, as described previously, which consisted of L-15B300 medium supplemented with 5% heat-inactivated Fetal Bovine Serum (FBS) (Gibco Co., Grand Island, NY), 10% Tryptose Phosphate Broth (TPB) (BD), penicillin (100 U/mL), streptomycin ([…], Gibco Co., Grand Island, NY, USA), and 0.1% bovine lipoprotein concentrate (ICN), (pH 7.2). The suspension of embryonic BME26 cells from R. microplus was seeded into 24-well plates (5 × 10^5 cells/well) to a final volume of 500 μL in a complete medium, and allowed to attach. After 24 h incubation at 34 °C, the extracts (100 µg/mL final concentration) and the compounds were added to the final concentrations indicated (1–100 µM), and 0.05% dimethylsulfoxide (DMSO) was used in the negative control wells. After 24 h of treatment, 50 μL of 3-(4,5-dimethylthiazol-2-yl)-2,5-diphenyltetrazolium bromide (MTT) prepared in serum-free medium (5 mg/mL) was added to each well. The media were discarded after 2 additional hours of incubation, and 1 mL of acid-isopropyl alcohol (0.15% HCl in isopropyl alcohol) was added to dissolve the formazan crystals. The mixture was transferred to 1.5 mL tubes, centrifuged at 6000× g for 15 min, and the clear supernatant was collected in new tubes for absorbance measurement at 570 nm using quartz cuvettes in a UVmini-1240 UV–vis spectrophotometer (Shimadzu, Japan). Absorbance values of the control treatment were used for normalization (100% viability). The activity was determined by analysis using OriginLab8.5® sigmoidal regression (% of viable cells compared to the logarithm of the compound concentration). The half-maximal inhibitory concentration (IC50), defined as the drug concentration at which 50% of the cells were viable relative to the control (no drug added), was used as a measurement of activity. These experiments were performed in triplicate for each compound.

[7] = tested on: ticks of the population of multiresistant field; assay: Adult immersion test on multiresistant field population (Table S3); type: in vivo, R. microplus; details: preliminary study
[8] = compounds 1.0 mM, 10 min immersion, 24 h
[9] = 1 h incubation, read-out: % Inhibition of Enzymatic Activity of RmTIM
[10] = Mus musculus, J774.1, cytotoxicity

Compound	% of Mortality LIT [2, 8]	IC50 [3]	acaricidal activity (in words) (R. microplus)	inhibition at 10 µM [3, 9]	inhibition at 10 µM [4]	EC50 [5, 10]	inhibition at 100 µM [6]	other results
Cc1ccc(/N=C/N(C)/C=N/c2ccc(C)cc2C)c(C)c1 [Amitraz, reference compound]	100%							% of Mortality AIT [1]: 100%
COc1cc(/C=C/c2cc(/C=C/[c-]3cccc3)[nH]n2)ccc1O.[Fe+2].c1cc[cH-]c1 [Mar106, 2-Methoxy-4-((E)-2-(5-((E)-ferrocenylvinyl)-1H-pyrazol-3-yl)vinyl)phenol]		25 ± 4 µM	did not show reproducible acaricidal activity					% Inhibition of Enzymatic Activity of RmTIM ([3]; at 100 µM (**), 1 h incubation): 69 ** %; % Inhibition of Enzymatic Activity of HsTIM at 10 µM ([4]; at 10 µM): 0%; EC50 ([5]; cytotoxicity): > 25 µM
O=C1/C(=C/c2ccccc2)CCC/C1=C\c1ccccc1 [compound 799]		< 10 µM	did not show reproducible acaricidal activity	88%	0%	> 50 µM		
O=C1/C(=C2\Nc3ccccc3C2=O)Nc2ccccc21 [compound 879]		< 10 µM	did not show reproducible acaricidal activity	95%	0%	> 50 µM	9%	
O=C(/C=C/c1ccccn1)c1ccccc1O [compound 885]	100 ± 9%		acaricidal potential against R. microplus similar to Amitraz				91%	IC50 ([5]; Mus musculus): > 50 µM; LC50 ([1]; adult females): 1000 µM; % of Mortality AIT [1]: 100 ± 9%; IC50 [6]: 17 ± 4 µM; acaricidal activity on multiresistant strain (in words) [7]: had acaricidal activity
Clc1ccc(-c2csc(/N=C/C=C/c3ccco3)n2)cc1 [compound 910]		23 ± 2 µM	did not show reproducible acaricidal activity		0%	> 50 µM		inhibition at 100 µM ([3]; at 100 µM (**), 1 h incubation, read-out: % Inhibition of Enzymatic Activity of RmTIM): 60%
Cc1c(/C=C/C(=O)c2ccccc2O)no[n+]1[O-] [compound 1253]	50 ± 8%		acaricidal potential				95%	IC50 ([5]; Mus musculus): > 50 µM; IC50 [6]: 12 ± 1 µM
O=C(N/N=C/C=C/c1ccco1)c1ccccn1 [compound 1367]		< 10 µM	did not show reproducible acaricidal activity	82%	0%	> 50 µM		
O=C(/C=C/c1ccsc1)/C=C/c1ccsc1 [compound 1387]		< 10 µM	did not show reproducible acaricidal activity	100%	0%	> 50 µM		
Ivermectin [reference compound]								% of Mortality LIT ([2]; commercial ivermectin control at 0.082 mM): 100%
